≈ marks a conversion by molar mass, not a printed value. Square brackets hold non-standard residues; d marks the D form. Peptide text beside a SMILES is read from it. Ac6c = NC1(C(=O)O)CCCCC1
How the values were obtained:
[1] = tested on: E. coli BW25113; test: Checkerboard assay (FICI); type: cell-based, Escherichia coli; details: E. coli BW25113, 25% MHB2; synergy FICI ≤ 0.5, antagonism FICI ≥ 4; Table S6
Experimental: Synergy was tested in sterile 96-well plates (polystyrene F-bottom, Greiner Bio-One GmbH) using a total volume of 100 μL per well. […] Plates were incubated (37 °C, 20 h) and the optical density recorded at 595 nm using a microplate reader (Victor3, Perkin Elmer Inc., Waltham, MA, USA). The fractional inhibitory concentration index (FICI) was calculated by the equation FICI = […] = (A/MICA) + (B/MICB), where MICA/B are the MICs of an antimicrobial peptide (A) and one of the three tested antibiotics (B) alone and A and B are the MICs of combined antimicrobials. Synergy was defined as FICI ≤ 0.5, antagonism as FICI ≥ 4 and additive or indifference as FICI between 0.5 and 4.

[2] = tested on: E. coli BW25113; test: MIC, liquid broth micro dilution, wild type; type: cell-based, Escherichia coli; details: for MIC (µg/mL), Table 3: BW25113, 4 h; for Minimal Inhibitory Concentration, 25% MHB2, wt / Minimal Inhibitory Concentration, 33% TSB, wt: BW25113, 20 h
Experimental: MIC values were determined using a liquid broth micro dilution assay in sterile 96-well plates (polystyrene F-bottom, Greiner Bio-One GmbH) and a total volume of 100 μL per well. Aqueous peptide solutions (10 g/L) were serially twofold diluted in 25% Mueller-Hinton broth 2 (25% MBH2) or 33% tryptic soy broth (33% TSB) starting at a peptide concentration of 128 mg/L (50 μL/well). Overnight cultures of bacteria grown in 25% MHB2 (or 33% TSB) were diluted 30-fold in 25% MHB2 (or 33% TSB). After an incubation period of 4 h (37 °C, 200 rpm), cells were diluted to 1.5 × 10^7 cfu/mL, based on a McFarland test, and 50 μL were added to each well (final concentration of 7.5 × 10^6 […]). The plates were incubated (37 °C, 20 h) and the optical density was recorded at 595 nm using a microplate reader ([…]^TM, Beckmann Coulter). The MIC was defined as the lowest peptide concentration preventing visible bacterial growth.

[3] = tested on: E. coli BW25113 ∆sbmA; type: cell-based, Escherichia coli; details: 20 h, at least duplicates on two days, * once on two days, ** duplicate on one day; for Minimal Inhibitory Concentration, 25% MHB2, ∆sbmA: 25% MHB2, 37 °C; for Minimal Inhibitory Concentration, 33% TSB, ∆sbmA: 37 °C
Procedure, shortened: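 Twofold peptide dilutions from 128 mg/L were made in 25% MHB2 or 33% TSB, with 4 h subcultured bacteria added to […]. After 20 h at 37 °C, OD595 was read; MIC is the lowest peptide concentration preventing visible growth.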

[4] = tested on: E. coli 70S ribosome; test: Competitive fluorescence polarization assay against Cf-Api137 (Ki); type: binding; details: Supplementary Figure S3; read-out: Ki as competitor of Cf-Api137
Experimental: (§1) Dissociation and inhibitory constants were determined in black 384-well-plates (Greiner Bio-One GmbH, Frickenhausen, Germany) blocked with 0.5% (w/v) casein in phosphate buffered saline (PBS, 8.8 mmol/L Na2HPO4×12 H2O, 1.2 mmol/L KH2PO4, 0.3 mol/L NaCl, pH 7.4) containing 0.05% (w/v) Tween® 20 (PBST) overnight at 4 °C and washed three times with PBST.
(§2) Ribosome solution was added (10 µmol/L) and the plate was incubated after centrifugation (2 min, 500× g, Rotor S2096, Allegra^TM 21R, Beckmann Coulter) at 28 °C for 90 min. Cf-labeled peptide was added (10 µL; final concentration of 20 nmol/L; final ribosome concentration of 0.5 µmol/L) and the plate was centrifuged and incubated again (90 min, 28 °C, dark). Fluorescence polarization was recorded (λex = 485 nm, λem = 535 nm) on a […]^TM microplate reader. Kd and IC50 values were calculated by fitting the data with a variable slope parameter [y = min + (max − min)/(1 + (x/Kd) ^−Hill slope) ] using SigmaPlot 13 (Systat Software Inc., San Jose, CA, USA). The obtained IC50 values were used to calculate the Ki values.

[5] = tested on: E. coli 70S ribosome; test: Competitive fluorescence polarization assay against Cf-ARV-1502 (Ki); type: binding, E. coli BW25113; details: 20 nmol/L Cf-ARV-1502, 0.5 µmol/L ribosome, 28 °C, 90 min + 90 min, Ki calculated from IC50; for Ki: read-out: Ki (nmol/L), competition with Cf-ARV-1502
Experimental: E. coli 70S ribosomes were prepared using a previously described protocol that was slightly modified. Briefly, E. coli BW25113 was cultivated in Luria-Bertani (LB) medium and cells were harvested after reaching an optical density of ~4 at 600 nm by centrifugation (5000× g, 15 min, 4 °C, Rotor JLA 8.100, Avanti J-20 XP, Beckmann Coulter, Krefeld, Germany). The cell pellets were frozen and stored at −80 °C. Cells were resuspended in ribosome buffer (2 mL/g cells; 20 mmol/L HEPES-KOH, 6 mmol/L MgCl2, 30 mmol/L NH4Cl, 4 mmol/L 2-mercaptoethanol, pH 7.6). Lysozyme (0.25 g/L cell suspension) was added, and the mixture was incubated on ice for 30 min. Cells were disrupted using the bead mill homogenizer FastPrep-24™ 5G (40 s, 4 m/s, 6 cycles, MP Biomedicals Germany GmbH, Eschwege, Germany) and zirconia/silica beads (0.1 mm diameter). The lysate was centrifuged (1500× g, 5 min, 4 °C, Rotor S4180, Allegra 21R, Beckmann Coulter) and the supernatant was incubated with DNase (5 U/mL) on ice for 60 min.
as §1
Ribosome solution was added (10 µmol/L) and the plate was incubated after centrifugation (2 min, 500× g, Rotor S2096, Allegra^TM 21R, Beckmann Coulter) at 28 °C for 90 min. Cf-labeled peptide was added (10 µL; final concentration of 20 nmol/L; final ribosome concentration of 0.5 µmol/L) and the plate was centrifuged and incubated again (90 min, 28 °C, dark). […] Kd and IC50 values were calculated by fitting the data with a variable slope parameter [y = min + (max − min)/(1 + (x/Kd) ^−Hill slope) ] using SigmaPlot 13 (Systat Software Inc., San Jose, CA, USA). The obtained IC50 values were used to calculate the Ki values.

[6] = tested on: E. coli 70S ribosome; test: Competitive fluorescence polarization assay against Cf-Onc112 (Ki); type: binding; details: Supplementary Figure S3; read-out: Ki as competitor of Cf-Onc112
Experimental: as §1, §2

With CC(C)C[C@H](NC(=O)[C@H](Cc1ccc(O)cc1)NC(=O)[C@@H]1CCCN1C(=O)[C@H](CCCNC(=N)N)NC(=O)[C@@H]1CCCN1C(=O)[C@H](CCCCN)NC(=O)[C@H](CC(=O)O)NC(=O)[C@@H]1CCCN1C(=O)[C@H](CCCNC(=N)N)NC(=O)C1(N)CCCCC1)C(=O)N1CCC[C@H]1C(=O)N[C@@H](CCCNC(=N)N)C(=O)N1CCC[C@H]1C(=O)N[C@@H](CCCNC(=N)N)C(=O)N1CCC[C@H]1C(=O)N1CCC[C@H]1C(=O)N[C@@H](CCCNC(=N)N)C(=O)N1CCC[C@H]1C(=O)N[C@H](C(=O)N[C@@H](CCCNC(=N)N)C(N)=O)C(C)C [ARV-1502] (H-[Ac6c]RPDKPRPYLPRPRPPRPVR-NH2) the “Checkerboard assay (FICI), peptide combined with chloramphenicol” value [1] was “did not indicate synergistic or antagonistic effects”, the “MIC (µg/mL), Table 3” value [2] was 8 µg/mL (≈ 3.23 µM) and the “Minimal Inhibitory Concentration, 25% MHB2, wt” value [2] was 8 µg/mL. The “Minimal Inhibitory Concentration, 33% TSB, wt” value [2] was 16 µg/mL, the “Minimal Inhibitory Concentration, 25% MHB2, ∆sbmA” value [3] was 16 to 32 µg/mL and the “Minimal Inhibitory Concentration, 33% TSB, ∆sbmA” value [3] was 64 µg/mL. For the same molecule, the Ki [4] was 3140 nM, the Ki [5] was 135 ± 10 nmol/L and the Ki [6] was 120 nM.
For CC[C@H](C)[C@H](NC(=O)[C@@H](CCCNC(=N)N)NC(=O)[C@H](CCCNC(=N)N)NC(=O)[C@@H]1CCCN1C(=O)[C@@H]1CCCN1C(=O)[C@H](CCCNC(=N)N)NC(=O)[C@@H]1CCCN1C(=O)[C@H](CCCNC(=N)N)NC(=O)[C@@H]1CCCN1C(=O)[C@H](CC(C)C)NC(=O)[C@H](Cc1ccc(O)cc1)NC(=O)[C@@H]1CCCN1C(=O)[C@@H]1CCCN1C(=O)[C@H](CCCCN)NC(=O)[C@H](CC(=O)O)NC(=O)[C@@H](N)C(C)C)C(=O)N[C@@H](Cc1ccc(O)cc1)C(=O)N[C@@H](CC(N)=O)C(=O)N[C@H](CCCNC(=N)N)C(N)=O [Onc112, reference compound] (H-VDKPPYLPRPRPPR[dR]IYN[dR]-NH2; N-terminus and C-terminus assumed), the “MIC (µg/mL), Table 3” value [2] was 8 µg/mL (≈ 3.35 µM), the “Minimal Inhibitory Concentration, 25% MHB2, wt” value [2] was 8 µg/mL and the “Minimal Inhibitory Concentration, 33% TSB, wt” value [2] was 16 µg/mL. For the same molecule, the “Minimal Inhibitory Concentration, 25% MHB2, ∆sbmA” value [3] was 16 to 32 µg/mL, the “Minimal Inhibitory Concentration, 33% TSB, ∆sbmA” value [3] was 64 µg/mL and the Ki [5] was 124 ± 2 nmol/L.
CC(C)C[C@H](NC(=O)[C@H](Cc1ccc(O)cc1)NC(=O)[C@@H]1CCCN1C(=O)[C@H](CCCNC(=N)N)NC(=O)[C@@H]1CCCN1C(=O)[C@H](CCCCN)NC(=O)[C@H](CCCCN)NC(=O)[C@@H]1CCCN1C(=O)[C@H](CCCNC(=N)N)NC(=O)C1(N)CCCCC1)C(=O)N1CCC[C@H]1C(=O)N[C@@H](CCCNC(=N)N)C(=O)N1CCC[C@H]1C(=O)N[C@@H](CCCNC(=N)N)C(=O)N1CCC[C@H]1C(=O)N1CCC[C@H]1C(=O)N[C@@H](CCCNC(=N)N)C(=O)N1CCC[C@H]1C(=O)N[C@H](C(=O)N[C@@H](CCCNC(=N)N)C(N)=O)C(C)C [Peptide 2] (H-[Ac6c]RPKKPRPYLPRPRPPRPVR-NH2; N-terminus and C-terminus assumed) was tested, and the “Checkerboard assay (FICI), peptide combined with chloramphenicol” value [1] was “Slightly higher FICIs”, the “MIC (µg/mL), Table 3” value [2] was 4 µg/mL (≈ 1.61 µM) and the “Minimal Inhibitory Concentration, 25% MHB2, wt” value [2] was 4 µg/mL. For the same molecule, the “Minimal Inhibitory Concentration, 33% TSB, wt” value [2] was 32 to 64 µg/mL and the “Ki (nmol/L), competition with Cf-ARV-1502” value [5] was “did not alter the Ki value”.

— publication PMC8950706, “Influence of Substitutions in the Binding Motif of Proline-Rich Antimicrobial Peptide ARV-1502 on 70S Ribosome Binding and Antimicrobial Activity” (International Journal of Molecular Sciences, 2022)
